Results on 19 molecules are retold here after patent publication US10065990B2, “Cyclic peptide compound, and preparation method, pharmaceutical composition and use thereof” (HANGZHOU GUANYU BIO-MEDICAL CO., LTD, priority 2013, dated 2018).

Like-named read-outs stand apart in the source and are kept apart here.

Common to all, as to experiment: HDAC biochemical activity measurement (fluorescent substrate deacetylation)
The target in one assay is HDAC1 (Homo sapiens, UniProt Q13547).
In another assay the target is T1, HDAC8 (Homo sapiens, UniProt Q9BY41).
T1 sequence (Q9BY41 1-377): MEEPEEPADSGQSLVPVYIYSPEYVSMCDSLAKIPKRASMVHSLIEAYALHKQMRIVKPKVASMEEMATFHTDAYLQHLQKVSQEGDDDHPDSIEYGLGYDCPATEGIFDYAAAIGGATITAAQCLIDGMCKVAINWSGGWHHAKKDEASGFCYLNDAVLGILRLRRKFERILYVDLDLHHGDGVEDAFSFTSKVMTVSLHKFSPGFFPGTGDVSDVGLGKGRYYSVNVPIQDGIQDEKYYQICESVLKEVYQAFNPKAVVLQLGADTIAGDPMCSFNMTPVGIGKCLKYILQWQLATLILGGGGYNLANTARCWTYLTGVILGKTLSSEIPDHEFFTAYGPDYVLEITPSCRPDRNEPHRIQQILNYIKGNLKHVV
The note with it: 37° C. 30 minutes.

For a further assay, the target named is T2, HDAC7 (Homo sapiens, UniProt Q8WUI4).
T2 sequence (Q8WUI4 1-952): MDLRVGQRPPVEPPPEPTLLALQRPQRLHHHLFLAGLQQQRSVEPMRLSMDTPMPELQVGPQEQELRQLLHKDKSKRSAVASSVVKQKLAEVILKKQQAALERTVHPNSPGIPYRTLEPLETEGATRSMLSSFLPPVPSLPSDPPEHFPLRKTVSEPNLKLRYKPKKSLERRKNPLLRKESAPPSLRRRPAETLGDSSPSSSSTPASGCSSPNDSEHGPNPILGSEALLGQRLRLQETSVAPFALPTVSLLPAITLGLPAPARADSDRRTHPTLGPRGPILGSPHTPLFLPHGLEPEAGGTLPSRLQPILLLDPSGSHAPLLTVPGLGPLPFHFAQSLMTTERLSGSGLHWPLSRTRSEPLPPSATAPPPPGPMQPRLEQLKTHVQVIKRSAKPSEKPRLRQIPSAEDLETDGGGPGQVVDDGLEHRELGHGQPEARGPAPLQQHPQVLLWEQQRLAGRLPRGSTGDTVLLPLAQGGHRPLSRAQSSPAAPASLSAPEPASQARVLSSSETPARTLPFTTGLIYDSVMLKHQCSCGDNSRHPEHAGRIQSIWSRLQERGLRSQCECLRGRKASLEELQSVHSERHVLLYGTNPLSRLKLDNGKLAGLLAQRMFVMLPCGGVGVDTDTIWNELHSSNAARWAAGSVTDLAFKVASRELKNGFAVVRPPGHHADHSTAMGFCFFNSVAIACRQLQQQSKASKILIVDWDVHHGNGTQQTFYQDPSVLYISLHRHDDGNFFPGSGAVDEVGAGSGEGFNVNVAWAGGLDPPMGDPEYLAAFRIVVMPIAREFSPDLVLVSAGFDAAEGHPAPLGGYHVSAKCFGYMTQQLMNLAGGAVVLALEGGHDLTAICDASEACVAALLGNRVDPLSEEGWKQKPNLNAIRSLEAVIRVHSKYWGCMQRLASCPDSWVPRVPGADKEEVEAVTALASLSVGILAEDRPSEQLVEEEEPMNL
The note with it: HDAC7; 37° C. 30 minutes.

Another assay concerns the target HDAC3 (Homo sapiens, UniProt O15379).
The target in a further assay is T3, HDAC11 (Homo sapiens, UniProt Q96DB2).
T3 sequence (Q96DB2 1-347): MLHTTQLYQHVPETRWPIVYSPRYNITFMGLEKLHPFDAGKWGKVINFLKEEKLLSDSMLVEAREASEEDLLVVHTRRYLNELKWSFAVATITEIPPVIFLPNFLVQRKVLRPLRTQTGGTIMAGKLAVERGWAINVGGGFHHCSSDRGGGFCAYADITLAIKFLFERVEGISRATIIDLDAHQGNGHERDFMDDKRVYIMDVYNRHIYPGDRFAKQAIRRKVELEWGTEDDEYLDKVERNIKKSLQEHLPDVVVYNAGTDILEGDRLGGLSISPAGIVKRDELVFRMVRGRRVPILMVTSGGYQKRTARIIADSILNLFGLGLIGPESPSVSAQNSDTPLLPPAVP

Setting [1] is: HDAC1, 37° C. 30 minutes, read-out: IC50 HDAC1.
The mark [2] stands for this setting: Table 2, read-out: IC50 HDAC1, a (compounds of the present invention).
Where [3] appears, read: read-out: IC50 HDAC3, HDAC3, 37° C. 30 minutes.
The mark [4] stands for this setting: read-out: IC50 HDAC11, HDAC11, 37° C. 30 minutes.
The mark [5] stands for this setting: Table 3, read-out: IC50 HDAC1, D (non-substituent).
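Throughout, for IC50 HDAC1, C (six-membered ring with substituents): fluorogenic acetyl-lysine substrate (20 µM) deacetylated by HDAC1, then developer releases fluorophore read at 360 nm excitation and 460 nm emission, inhibitor incubated 30 min at 37 °C.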
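Throughout, for IC50 HDAC1, D (non-substituent): fluorogenic acetyl-lysine substrate (20 µM) deacetylated by HDAC1, then developer releases fluorophore read at 360 nm excitation and 460 nm emission, inhibitor incubated 30 min at 37 °C.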
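Throughout, for IC50 HDAC1, a (compounds of the present invention): fluorogenic acetyl-lysine substrate (20 µM) deacetylated by HDAC1, then developer releases fluorophore read at 360 nm excitation and 460 nm emission, inhibitor incubated 30 min at 37 °C.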
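Throughout, for IC50 HDAC1: fluorogenic acetyl-lysine substrate (20 µM) deacetylated by HDAC1, then developer releases fluorophore read at 360 nm excitation and 460 nm emission, inhibitor incubated 30 min at 37 °C.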
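Throughout, for IC50 HDAC7: fluorogenic deacetylation assay using acetyl-lysine substrate at 20 µM, enzyme and compound incubated 30 min at 37 °C, then developer added, fluorescence read at 360/460 nm.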

Chain of HDAC1 (Q13547 whole entry, species assumed): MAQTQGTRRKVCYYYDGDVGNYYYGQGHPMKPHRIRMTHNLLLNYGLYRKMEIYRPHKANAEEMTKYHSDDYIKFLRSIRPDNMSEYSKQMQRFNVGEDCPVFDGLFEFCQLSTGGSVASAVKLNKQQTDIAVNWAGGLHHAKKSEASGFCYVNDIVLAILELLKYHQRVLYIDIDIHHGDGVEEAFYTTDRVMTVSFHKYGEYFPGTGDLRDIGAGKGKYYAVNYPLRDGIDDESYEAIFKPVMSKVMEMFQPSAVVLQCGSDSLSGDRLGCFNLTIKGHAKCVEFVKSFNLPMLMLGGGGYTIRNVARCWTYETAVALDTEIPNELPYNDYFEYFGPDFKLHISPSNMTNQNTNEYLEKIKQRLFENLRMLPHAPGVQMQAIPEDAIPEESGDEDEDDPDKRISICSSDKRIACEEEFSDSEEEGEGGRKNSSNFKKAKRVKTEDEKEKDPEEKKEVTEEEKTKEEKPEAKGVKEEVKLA
Chain of HDAC3 (O15379 whole entry, species assumed): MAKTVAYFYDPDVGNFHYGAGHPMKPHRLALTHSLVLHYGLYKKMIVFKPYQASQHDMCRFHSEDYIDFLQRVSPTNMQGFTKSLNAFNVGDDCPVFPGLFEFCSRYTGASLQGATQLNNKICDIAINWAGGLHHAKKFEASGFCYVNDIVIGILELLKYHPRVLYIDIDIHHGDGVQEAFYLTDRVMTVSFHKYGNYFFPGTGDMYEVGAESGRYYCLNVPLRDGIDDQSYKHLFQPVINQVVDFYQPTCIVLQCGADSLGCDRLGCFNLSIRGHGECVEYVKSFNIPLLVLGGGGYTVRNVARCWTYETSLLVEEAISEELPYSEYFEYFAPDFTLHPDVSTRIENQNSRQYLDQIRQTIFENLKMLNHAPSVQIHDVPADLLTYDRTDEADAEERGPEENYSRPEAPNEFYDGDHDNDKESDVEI
Chain of HDAC3 (Q9Y618 395-489 partner limits assumed, species assumed): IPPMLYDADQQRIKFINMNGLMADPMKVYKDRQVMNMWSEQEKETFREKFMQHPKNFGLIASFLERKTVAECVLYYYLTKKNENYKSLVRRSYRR
Description for HDAC11: (§1) The chemical activity of the compound is determined according to the degree of deacetylation inhibition of the HDAC enzyme. This experiment measured the degree of deacetylation related to tumor proliferation and metastasis of HDAC1, HDAC2, HDAC3, HDAC8, HDAC11 five subtypes HDAC enzymes. After the substrate containing an acetylated lysine side chain and HDAC enzyme are labeled with a fluorescent label, the fluorescent substrate is de acetyl. The fluorescent labeled substrate is cleaved by the enzyme, and the fluorescent substance is released, which generates 460 nm emission light under the excitation of 360 nm light.
(§2) HDAC substrate was diluted with reaction buffer to 200M (reaction concentration of 20M), the HDAC enzyme was diluted to the appropriate concentration, then added different concentrations of the test compounds and acted at 37° C. 30 minutes, and then added the same volume of 2-times concentration substrate developing solution (developer), incubated at room temperature for 15 minutes.
Description for HDAC3: as §1, §2

`C/C=C1\NC(=O)c2nc(ccc2C)CNC(=O)C[C@@H](/C=C/CCSC(=O)CCCCCCC)OC(=O)[C@H](C(C)C)NC1=O` [Compound 243]: the half-inhibitory concentration (IC50) on HDAC1 (setting [1]) was 87 nM; on HDAC1 (setting [2]), below 100 nM; on HDAC8 it was 129 nM; at HDAC3 (setting [3]), 48 nM; at HDAC11 (setting [4]), 187 nM. Besides, the “IC50 HDAC7” value at HDAC7 is “no activity”.
In the case of `C/C=C1\NC(=O)c2cccc(n2)CNC(=O)C[C@@H](/C=C/CCSC(=O)CCCCCCC)OC(=O)[C@H](CCSC)NC1=O` [Compound 240], the IC50 on HDAC1 (setting [1]) is 45 nM; at HDAC1 (setting [2]), below 50 nM; at HDAC8, 52 nM; on HDAC3, 53 nM; against HDAC11 it was 56 nM. In addition, the “IC50 HDAC7” value against HDAC7 is listed as “no activity”.
As to `C/C=C1\NC(=O)c2cccc(n2)CNC(=O)C[C@@H](/C=C/CCSC(C)=O)OC(=O)[C@H](Cc2ccc(O)cc2)NC1=O` [Compound 18], the IC50 at HDAC1 (setting [1]) worked out at 187 nM; on HDAC1 (setting [5]) it was 187 nM; against HDAC8, 73 nM; at HDAC3 (setting [3]) it was 67 nM; at HDAC11 (setting [4]), 107 nM. Further, the “IC50 HDAC7” value against HDAC7 is “no activity”.
As to `C/C=C1\NC(=O)c2cccc(n2)CNC(=O)C[C@@H](/C=C/CCSC(=O)CCCCCCC)OC(=O)[C@H](c2ccc(O)cc2)NC1=O` [Compound 238], the IC50 was 44 nM at HDAC1 (setting [1]); below 50 nM on HDAC1 (setting [2]); 78 nM at HDAC8; 59 nM at HDAC3 (setting [3]); 65 nM at HDAC11 (setting [4]). For the same molecule, at HDAC7, the “IC50 HDAC7” value was “no activity”.
`C/C=C1\NC(=O)c2nc(ccc2F)CNC(=O)C[C@@H](/C=C/CCSC(C)=O)OC(=O)[C@H](C(C)C)NC1=O` [Example 48]: the IC50 on HDAC1 (setting [1]) was determined as 81 nM; against HDAC8, 14 nM; on HDAC3 it was 47 nM; on HDAC11, 93 nM. On HDAC7, the “IC50 HDAC7” value is on record as “no activity”.
For `C/C=C1\NC(=O)c2nc(ccc2SC)CNC(=O)C[C@@H](/C=C/CCSC(=O)CCCCCCC)OC(=O)[C@H](C(C)C)NC1=O` [Compound 147] the same measures were 61 nM, 28 nM, 51 nM, 86 nM and “no activity”.
For `C/C=C1\NC(=O)c2cc(SC)cc(n2)CNC(=O)C[C@@H](/C=C/CCSC(C)=O)OC(=O)[C@H](CCCCN)NC1=O` [Compound 193], the IC50 at HDAC1 (setting [1]) came out at 43 nM; against HDAC8, 49 nM; against HDAC3 it was 39 nM; at HDAC11, 93 nM. On HDAC7, the “IC50 HDAC7” value is “no activity”.
As for `C/C=C1\NC(=O)c2nc(ccc2SC)CNC(=O)C[C@@H](/C=C/CCSC(=O)CCCCC)OC(=O)[C@H](C(C)C)NC1=O` [Compound 153], the IC50 amounted to 72 nM on HDAC1 (setting [1]), 28 nM on HDAC8, 36 nM at HDAC3 and 72 nM on HDAC11. Besides, on HDAC7, the “IC50 HDAC7” value is listed as “no activity”.
For the molecule `C/C=C1\NC(=O)c2cc(SC)cc(n2)CNC(=O)C[C@@H](/C=C/CCSC=O)OC(=O)[C@H](C(C)C)NC1=O` [Compound 169], the IC50 on HDAC1 (setting [1]) is 72 nM; against HDAC8 it was 15 nM; against HDAC3, 16 nM; on HDAC11, 92 nM. Further, the “IC50 HDAC7” value against HDAC7 is reported as “no activity”.
For `C=C1NC(=O)c2cc(SC)cc(n2)CNC(=O)C[C@@H](/C=C/CCSC(C)=O)OC(=O)[C@H](C(C)C)NC1=O` [Compound 205], the IC50 at HDAC1 (setting [1]) was determined as 91 nM; against HDAC8, 62 nM; against HDAC3 it was 38 nM; on HDAC11, 77 nM. In addition, the “IC50 HDAC7” value at HDAC7 is given as “no activity”.
For `C=C1NC(=O)c2cccc(n2)CNC(=O)C[C@@H](/C=C/CCSC(=O)CCCCCCC)OC(=O)[C@H](C(C)C)NC1=O` [Compound 244], the half-inhibitory concentration (IC50) on HDAC1 (setting [1]) was 92 nM; at HDAC1 (setting [2]) it was below 100 nM; against HDAC8, 89 nM; on HDAC3 (setting [3]) it was 32 nM; at HDAC11 (setting [4]), 37 nM. Also, the “IC50 HDAC7” value against HDAC7 was “no activity”.
As for `C/C=C1\NC(=O)c2cccc(n2)CNC(=O)C[C@@H](/C=C/CCSC(=O)CCC)OC(=O)[C@H](C(C)C)NC1=O` [Compound 5], the concentration for half-maximal inhibition (IC50) came out at 74 nM on HDAC1 (setting [1]); 74 nM at HDAC1 (setting [5]); 67 nM against HDAC8; 49 nM on HDAC3 (setting [3]); 111 nM at HDAC11 (setting [4]). Also, the “IC50 HDAC7” value against HDAC7 is reported as “no activity”.
On to `C/C=C1\NC(=O)c2cccc(n2)CNC(=O)C[C@@H](/C=C/CCSC(=O)CCCCCCC)OC(=O)CNC1=O` [Compound 235], for which the IC50 was 8 nM on HDAC1 (setting [1]); below 10 nM at HDAC1 (setting [2]); 47 nM on HDAC8; 35 nM on HDAC3 (setting [3]); 19 nM at HDAC11 (setting [4]). The “IC50 HDAC7” value against HDAC7 was “no activity”.
Regarding `C/C=C1\NC(=O)c2cccc(n2)CNC(=O)C[C@@H](/C=C/CCSC(=O)CCCCCCC)OC(=O)[C@H](C(C)(C)C)NC1=O` [Compound 237], the IC50 is 72 nM at HDAC1 (setting [1]); below 80 nM at HDAC1 (setting [2]); 43 nM against HDAC8; 35 nM on HDAC3 (setting [3]); 77 nM at HDAC11 (setting [4]). Further, the “IC50 HDAC7” value at HDAC7 is reported as “no activity”.
Regarding `C/C=C1\NC(=O)c2nc(ccc2F)CCNC(=O)C[C@@H](/C=C/CCSC(C)=O)OC(=O)[C@H](C(C)C)NC1=O` [Compound 103], the IC50 at HDAC1 (setting [1]) came out at 38 nM; against HDAC8, 16 nM; at HDAC3, 53 nM; against HDAC11, 93 nM. Moreover, the “IC50 HDAC7” value against HDAC7 was “no activity”.
As to `C/C=C1\NC(=O)c2cc(F)cc(n2)CNC(=O)C[C@@H](/C=C/CCSC(=O)CCC)OC(=O)[C@H](C(C)C)NC1=O` [Compound 43], the IC50 is 27 nM on HDAC1 (setting [1]); 27 nM at HDAC1 (Table 3, column C, read-out: IC50 HDAC1, C (six-membered ring with substituents)); 43 nM at HDAC8; 46 nM at HDAC3 (setting [3]); 94 nM on HDAC11 (setting [4]). The “IC50 HDAC7” value at HDAC7 is reported as “no activity”.
On to `C/C=C1\NC(=O)c2cc(SC)cc(n2)CNC(=O)C[C@@H](/C=C/CCSC(C)=O)OC(=O)[C@H](C(C)C)NC1=O` [Compound 224], for which the IC50 was 184 nM on HDAC1 (setting [1]), 752 nM against HDAC8, 563 nM at HDAC3 (setting [3]) and 279 nM on HDAC11 (setting [4]). Further, the “IC50 HDAC7” value on HDAC7 was “no activity”.
`C/C=C1\NC(=O)c2cccc(n2)CNC(=O)C[C@@H](/C=C/CCSC(=O)CCCCCCC)OC(=O)[C@H](CC(C)C)NC1=O` [Compound 241]: the IC50 on HDAC1 (setting [1]) is 28 nM; on HDAC1 (setting [2]), below 30 nM; at HDAC8, 33 nM; at HDAC3 it was 62 nM; on HDAC11, 69 nM. Besides, at HDAC7, the “IC50 HDAC7” value is “no activity”.
Regarding `C/C=C1\NC(=O)c2ncc(SC)c(n2)CNC(=O)C[C@@H](/C=C/CCSC(C)=O)OC(=O)[C@H](C(C)C)NC1=O` [Compound 217], the IC50 at HDAC1 (setting [1]) was 35 nM; against HDAC8, 78 nM; on HDAC3 (setting [3]) it was 122 nM; on HDAC11 (setting [4]), 93 nM. In addition, the “IC50 HDAC7” value against HDAC7 was “no activity”.
